Results published in US20210330611A1, “THERAPY FOR NEUROLOGICAL DISEASES/DISORDERS” (priority 2020, published 2021).
Read-outs that look alike come from different tables or passages of the source.

What was measured:
[1] = tested on: fibrin-induced microglia activation; test: Image-based assay of fibrin-induced microglia activation (HTS and dose response); format: cell-based, rat; conditions: for inhibition at 10 µM: Rattus norvegicus, Microglia, read-out: Fibrin % inhibition
[2] = tested on: LPS-induced microglia activation; test: Image-based assay of LPS-induced microglia activation (HTS and dose response); format: cell-based, rat; conditions: for inhibition at 10 µM: Rattus norvegicus, Microglia, read-out: LPS % inhibition
[3] = tested on: fibrin- and LPS-induced microglia activation; test: cells; format: cell-based, rat
primary rat microglia [4] = test: Cell toxicity (dead cells, size <150 μm2) in LPS assay
primary rat microglia [5] = test: Cell toxicity (dead cells, size <150 μm2) in coated fibrin (cFib) assay;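 note: share of dead cells sized under 150 µm2 at 10 µM in fibrin-stimulated microglia HTS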
[6] = primary HTS, 10 μM, fibrin-stimulated primary microglia
[7] = primary HTS, 10 μM, LPS-stimulated primary microglia
[8] = primary HTS, 10 μM, LPS assay, dead cells size <150 μm2
[9] = primary HTS, 10 μM, fibrin assay, dead cells size <150 μm2
[10] = primary microglia HTS, fibrin stimulation, increased cell size (>800 μm^2) as marker of activation
[11] = quadrant by fibrin and LPS inhibition in HTS of 1907 compounds
[12] = primary microglia HTS, LPS stimulation, decreased size (<150 μm^2) as marker of toxicity
[13] = primary microglia HTS, fibrin stimulation, decreased size (<150 μm^2) as marker of toxicity

| SMILES | inhibition at 10 µM [1, 6] [%] | inhibition at 10 µM [2, 7] [%] | Quadrant (FIG. 5b) ([3]; primary HTS, 10 μM) | LPS % cell toxicity (primary rat microglia [4]; [8]) [%] | Fibrin % cell toxicity (primary rat microglia [5]; [9]) [%] | Fibrin % inhibition [1, 10] [%] | LPS % inhibition ([2]; primary microglia HTS, LPS stimulation, increased cell size (>800 μm^2) as marker of activation) [%] | Quadrant (FIG. 5b) [3, 11] | LPS % cell toxicity (primary rat microglia [4]; [12]) [%] | Fibrin % cell toxicity (primary rat microglia [5]; [13]) [%] | inhibition at 10 µM [1, 10] [%] | inhibition at 10 µM ([2]; 48 h, primary microglia HTS, LPS stimulation, increased cell size (>800 μm^2) as marker of activation) [%] | Fibrin % inhibition [1, 6] [%] | LPS % inhibition [2, 7] [%] |
| --- | --- | --- | --- | --- | --- | --- | --- | --- | --- | --- | --- | --- | --- | --- |
| CN(C)CCN(Cc1ccc(Cl)cc1)c1ccccn1 [Chloropyramine] | 25 | 13 | Q4 | 0 | 1 | – | – | – | – | – | – | – | – | – |
| NS(=O)(=O)c1cc2c(cc1Cl)N=CNS2(=O)=O [Chlorothiazide] | 20 | 3 | Q4 | 0 | 0 | – | – | – | – | – | – | – | – | – |
| Cc1cc(O)cc(C)c1Cl [Chloroxylenol] | -15 | 7 | Q4 | 0 | 1 | – | – | – | – | – | – | – | – | – |
| NC(=O)OCC(O)COc1ccc(Cl)cc1 (stereo not shown) [Chlorphenesin Carbamate] | -41 | -4 | Q4 | 0 | 1 | – | – | – | – | – | – | – | – | – |
| CCCNC(=O)NS(=O)(=O)c1ccc(Cl)cc1 [Chlorpropamide] | 3 | 17 | Q4 | 1 | 1 | – | – | – | – | – | – | – | – | – |
| Cc1ccc2c(Cl)cc(Cl)c(O)c2n1 [Chlorquinaldol] | -14 | 15 | Q4 | 0 | 1 | – | – | – | – | – | – | – | – | – |
| CN(C)[C@@H]1C(O)=C(C(N)=O)C(=O)[C@@]2(O)C(O)=C3C(=O)c4c(O)ccc(Cl)c4[C@@](C)(O)[C@H]3C[C@@H]12 [Chlortetracycline] | -15 | -6 | Q4 | 0 | 1 | – | – | – | – | – | – | – | – | – |
| CC(C)CCC[C@@H](C)[C@H]1CC[C@H]2[C@@H]3CC=C4C[C@@H](O)CC[C@]4(C)[C@H]3CC[C@]12C [Cholesterol] | 4 | 9 | Q4 | 0 | 0 | – | – | – | – | – | – | – | – | – |
| O=C(O)c1cc(=O)c2ccccc2o1 [Chromocarb] | -7 | 5 | Q4 | 0 | 1 | – | – | – | – | – | – | – | – | – |
| Oc1cc(O)c2c(c1)O[C@H](c1ccc(O)c(O)c1)[C@@H](O)C2 [Cianidanol] | -19 | 7 | Q4 | 0 | 0 | – | – | – | – | – | – | – | – | – |
| Cc1cc(C2CCCCC2)n(O)c(=O)c1 [Ciclopirox] | -1 | 40 | Q4 | 1 | 1 | – | – | – | – | – | – | – | – | – |
| CCC(CC)(CC(=O)Nc1cccc(/C=C/c2nc(C3CCC3)cs2)c1)C(=O)O [Cinalukast] | -21 | -8 | Q4 | 0 | 1 | – | – | – | – | – | – | – | – | – |
| CCCCOc1cc(C(=O)NCCN(CC)CC)c2ccccc2n1 [Cinchocaine] | -57 | 7 | Q4 | 0 | 0 | – | – | – | – | – | – | – | – | – |
| C=C[C@H]1CN2CC[C@H]1C[C@H]2[C@H](O)c1ccnc2ccccc12 [Cinchonidine] | 13 | 4 | Q4 | 0 | 1 | – | – | – | – | – | – | – | – | – |
| C=C[C@H]1C[N@@]2CC[C@H]1C[C@@H]2[C@@H](O)c1ccnc2ccccc12 [Cinchonine] | -6 | 28 | Q4 | 0 | 1 | – | – | – | – | – | – | – | – | – |
| O=C(O)c1cc(-c2ccccc2)nc2ccccc12 [Cinchophen] | -9 | 36 | Q4 | 0 | 1 | – | – | – | – | – | – | – | – | – |
| COc1cc(/C=C/C(=O)N2CCCCCCC2)cc(OC)c1OC [Cinoctramide] | – | – | – | – | – | 90 | 53 | Q2 | 1 | 4 | – | – | – | – |
| CCn1nc(C(=O)O)c(=O)c2cc3c(cc21)OCO3 [Cinoxacin] | – | – | – | – | – | – | – | Q2 | 12 | 50 | 117 | 115 | – | – |
| CCNC(=O)/C=C/c1cccc(Br)c1 [Cinromide] | -10 | 13 | Q4 | 0 | 1 | – | – | – | – | – | – | – | – | – |
| COc1cc(/C=C/C(N)=O)cc(OC)c1OC [Cintriamide] | -2 | 15 | Q4 | 0 | 1 | – | – | – | – | – | – | – | – | – |
| CC(=O)NC1CCSC1=O (stereo not shown) [Citiolone] | -32 | 7 | Q4 | 0 | 0 | – | – | – | – | – | – | – | – | – |
| O=C(O)[C@H]1/C(=C/CO)O[C@@H]2CC(=O)N21 [Clavulanate] | -16 | 5 | Q4 | 0 | 0 | – | – | – | – | – | – | – | – | – |
| C[N+]12CCC(CC1)C(OC(=O)C(O)(c1ccccc1)c1ccccc1)C2 (stereo not shown) [Clidinium Bromide] | -20 | 9 | Q4 | 0 | 1 | – | – | – | – | – | – | – | – | – |
| CC(C)(C)C(=O)C(Oc1ccc(Cl)cc1)n1ccnc1 (stereo not shown) [Climbazole] | -10 | 1 | Q4 | 0 | 1 | – | – | – | – | – | – | – | – | – |
| Cl.NC1CCN(c2c(F)cc3c(=O)c(C(=O)O)cn(C4CC4)c3c2Cl)C1 (stereo not shown) [Clinafoxacin Hydrochloride] | – | – | Q4 | 0 | 0 | – | – | – | – | – | – | – | −22 | 9 |
| Oc1c(I)cc(Cl)c2cccnc12 [Clioquinol] | -11 | 22 | Q4 | 1 | 1 | – | – | – | – | – | – | – | – | – |
| O=P(O)(O)C(Cl)(Cl)P(=O)(O)O [Clodronate] | -15 | 1 | Q4 | 0 | 1 | – | – | – | – | – | – | – | – | – |
| CC(C)/N=c1\cc2n(-c3ccc(Cl)cc3)c3ccccc3nc-2cc1Nc1ccc(Cl)cc1 [Clofazimine] | 23 | 15 | Q4 | 0 | 1 | – | – | – | – | – | – | – | – | – |
| CCOC(=O)C(C)(C)Oc1ccc(Cl)cc1 [Clofibrate] | -20 | 18 | Q4 | 1 | 0 | – | – | – | – | – | – | – | – | – |
